Experiment [1] has as its target DNMT1 (Homo sapiens, UniProt P26358). Put plainly: DNMT1 biochemical activity, breaklight assay and/or SPA assay.
Experiment [2] relates to erythroid progenitor cells (EPCs). Description: Fetal hemoglobin (HbF) ELISA in day 7 erythroid progenitor cells.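 On EPC ELISA (pEC50 category): for fetal hemoglobin induction normalized to vehicle-treated cells.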 The class given is cell-based, human. To be noted: Homo sapiens, Erythroid progenitor cell, read-out: EPC ELISA (pEC50 category) (converted). An outline of the steps: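 CD34+-derived EPCs, 1,000 cells/well, rhEPO 3 U/mL; Compound A 22-pt series, […]; 5 d, 37° C, 5% CO2. Freeze-thaw lysis, anti-HbF capture + HRP anti-HbF, TMB, OD450. Normalized to DMSO wells.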

The mark [3] stands for this setting: binned activity in either the breaklight or the SPA assay.
Setting [4] is: binned activity in either the breaklight or the SPA assay, read-out: DNMT1 BioChemical (pIC50 category) (converted).
The mark [5] stands for this setting: breaklight assay and/or SPA assay, repeated experimental runs, read-out: average pIC50 against DNMT1 (converted).

“And” between values parts separate entries of the source, which are not always exact repeats. Identical values can stand only once. Counter-ions that a name gives are not always drawn. Like-named read-outs stand apart in the source and are kept apart here.

DNMT1, sequence (P26358 whole entry, looked up): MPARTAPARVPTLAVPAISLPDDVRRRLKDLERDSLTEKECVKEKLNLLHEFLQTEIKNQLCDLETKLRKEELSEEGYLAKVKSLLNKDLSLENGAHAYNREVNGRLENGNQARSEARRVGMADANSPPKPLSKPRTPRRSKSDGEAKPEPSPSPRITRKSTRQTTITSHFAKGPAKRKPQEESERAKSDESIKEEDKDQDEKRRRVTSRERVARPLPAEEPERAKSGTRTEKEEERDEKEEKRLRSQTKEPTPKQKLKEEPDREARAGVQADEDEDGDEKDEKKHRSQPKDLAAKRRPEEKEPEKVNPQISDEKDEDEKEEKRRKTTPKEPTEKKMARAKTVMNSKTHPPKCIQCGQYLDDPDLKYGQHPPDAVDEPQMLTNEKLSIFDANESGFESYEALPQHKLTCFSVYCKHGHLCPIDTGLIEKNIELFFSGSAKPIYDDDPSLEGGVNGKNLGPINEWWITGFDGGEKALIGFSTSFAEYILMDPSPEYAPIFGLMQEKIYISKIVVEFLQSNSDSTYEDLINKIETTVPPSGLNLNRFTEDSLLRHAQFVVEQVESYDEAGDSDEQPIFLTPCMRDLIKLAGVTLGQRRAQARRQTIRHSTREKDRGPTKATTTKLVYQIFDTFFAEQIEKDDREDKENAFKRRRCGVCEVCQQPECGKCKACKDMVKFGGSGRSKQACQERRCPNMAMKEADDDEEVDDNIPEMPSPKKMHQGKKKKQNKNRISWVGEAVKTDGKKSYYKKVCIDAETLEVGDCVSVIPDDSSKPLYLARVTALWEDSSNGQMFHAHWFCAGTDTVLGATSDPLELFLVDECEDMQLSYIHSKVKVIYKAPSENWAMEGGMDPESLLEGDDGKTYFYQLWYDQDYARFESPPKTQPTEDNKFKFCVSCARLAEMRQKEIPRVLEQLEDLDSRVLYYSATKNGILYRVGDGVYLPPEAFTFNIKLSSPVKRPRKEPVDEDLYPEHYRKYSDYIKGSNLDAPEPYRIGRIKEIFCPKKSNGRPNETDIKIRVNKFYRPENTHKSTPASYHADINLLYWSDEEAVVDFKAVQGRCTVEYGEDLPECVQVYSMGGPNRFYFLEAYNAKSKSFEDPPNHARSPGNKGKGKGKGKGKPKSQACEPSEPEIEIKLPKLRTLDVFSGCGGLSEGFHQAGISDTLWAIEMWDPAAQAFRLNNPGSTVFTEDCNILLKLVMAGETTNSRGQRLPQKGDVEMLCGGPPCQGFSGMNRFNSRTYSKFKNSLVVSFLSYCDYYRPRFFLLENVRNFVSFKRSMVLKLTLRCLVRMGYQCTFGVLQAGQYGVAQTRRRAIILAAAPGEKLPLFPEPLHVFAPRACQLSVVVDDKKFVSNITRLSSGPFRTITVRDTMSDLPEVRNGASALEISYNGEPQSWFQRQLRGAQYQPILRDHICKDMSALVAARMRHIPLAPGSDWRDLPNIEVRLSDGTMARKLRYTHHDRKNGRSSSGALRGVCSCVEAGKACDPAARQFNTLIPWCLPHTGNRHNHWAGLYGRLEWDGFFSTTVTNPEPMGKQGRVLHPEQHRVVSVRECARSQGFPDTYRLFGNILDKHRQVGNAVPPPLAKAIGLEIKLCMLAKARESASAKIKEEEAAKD

Turning to `CCc1c(C#N)c(SC(C(N)=O)c2ccc(F)cc2)nc(N2CC[C@@H](N(C)C)C2)c1C#N` (stereo partly drawn) [Example 530, 2-((3,5-dicyano-6-((R)-3-(dimethylamino)pyrrolidin-1-yl)-4-ethylpyridin-2-yl)thio)-2-(4-fluorophenyl)acetamide], the “DNMT1 BioChemical (pIC50 category)” value in experiment [1] (setting [3]) was “D (Category D: ≥6.5)”. Besides, the EC50 in experiment [2] (HbF ELISA, day 7 EPCs, 5 days) was 1 to 31.6 µM.

Turning to `CCc1c(C#N)c(SC(C(N)=O)c2ccccc2)nc(N2CC(O)C2)c1C#N` (centres unmarked) [Example 146, 2-((3,5-Dicyano-4-ethyl-6-(3-hydroxyazetidin-1-yl)pyridin-2-yl)thio)-2-phenylacetamide], in experiment [1] (setting [3]), the “DNMT1 BioChemical (pIC50 category)” value was “D (Category D: ≥6.5)”. The EC50 in experiment [2] (HbF ELISA, day 7 EPCs, 5 days) was 0.316 to 1 µM.

For the compound `CCc1c(C#N)c(SC(C(N)=O)c2ccccc2)nc(N2CC[C@H](OP(=O)(O)O)C2)c1C#N` (stereo partly drawn) [Example 415, (3S)-1-(6-((2-amino-2-oxo-1-phenylethyl)thio-3,5-dicyano-4-ethylpyridin-2-yl) Pyrrolidin-3-yldihydrogen phosphate], the IC50 in experiment [1] (setting [4]) is 1 to 31.6 µM. The EC50 in experiment [2] is 1 to 31.6 µM.

On to `CCc1c(C#N)c(S[C@@H](C(N)=O)c2ccccc2)nc(N2CCC(N3CCCC3)CC2)c1C#N` [Example 405, (R)-2-((3,5-Dicyano-4-ethyl-6-(4-(pyrrolidin-1-yl)piperidin-1-yl)pyridin-2-yl)thio)-2-phenylacetamide], for which, in experiment [1] (setting [3]), the “DNMT1 BioChemical (pIC50 category)” value was “D (Category D: ≥6.5)”. Further, the EC50 in experiment [2] (HbF ELISA, day 7 EPCs, 5 days) was below 0.316 µM.

For `CCc1c(C#N)c(SC(C(N)=O)c2ccc(F)cc2)nc(N2CCNCC2)c1C#N` (centres unmarked) [Example 196, 2-((3,5-Dicyano-4-ethyl-6-(piperazin-1-yl)pyridin-2-yl)thio)-2-(4-fluorophenyl)acetamide, Trifluoroacetic Acid Salt], in experiment [1] (setting [3]), the “DNMT1 BioChemical (pIC50 category)” value is “D (Category D: ≥6.5)”. For the same compound, the EC50 in experiment [2] (HbF ELISA, day 7 EPCs, 5 days) is below 0.316 µM.

For the compound `CCCOc1c(C#N)c(SC(C(N)=O)c2ccccc2)nc(N2CCCN(CCO)CC2)c1C#N` (centres unmarked) [Example 213, 2-((3,5-Dicyano-6-(4-(2-hydroxyethyl)-1,4-diazepan-1-yl)-4-propoxypyridin-2-yl)thio)-2-phenylacetamide], the IC50 in experiment [1] (setting [4]) is 0.316 to 1 µM. Also, the EC50 in experiment [2] (HbF ELISA, day 7 EPCs, 5 days) was 1 to 31.6 µM.

Regarding `CCc1c(C#N)c(SC(C(N)=O)c2ccccc2)nc(N(C)Cc2cnc[nH]2)c1C#N` (centres unmarked) [Example 365], in experiment [1] (setting [4]), the IC50 is 0.316 to 1 µM. Besides, the EC50 in experiment [2] (HbF ELISA, day 7 EPCs, 5 days) was 1 to 31.6 µM.

As to `CCc1c(C#N)c(SC(C(N)=O)c2ccccc2)nc(N2CCN(Cc3ccon3)CC2)c1C#N` (centres unmarked) [Example 183, 2-((3,5-Dicyano-4-ethyl-6-(4-(isoxazol-3-ylmethyl)piperazin-1-yl)pyridin-2-yl)thio)-2-phenylacetamide], in experiment [1] (setting [4]), the IC50 is 0.316 to 1 µM. Besides, the EC50 in experiment [2] (HbF ELISA, day 7 EPCs, 5 days) was 1 to 31.6 µM.

As to `CCc1c(C#N)c(SCc2ccc(N3CCCCS3(=O)=O)cc2)nc(N2CCC(N)CC2)c1C#N` [Example 601, 2-(4-aminopiperidin-1-yl)-6-((4-(1,1-dioxido-1,2-thiazinan-2-yl)benzyl)thio)-4-ethylpyridine-3,5-dicarbonitrile], the “DNMT1 BioChemical (pIC50 category)” value in experiment [1] (setting [3]) is “D (Category D: ≥6.5)”. The EC50 in experiment [2] (HbF ELISA, day 7 EPCs, 5 days) was above 31.6 µM.

Turning to `CN(CCO)c1nc(SC(C(N)=O)c2ccccc2)c(C#N)c(C2CC2)c1C#N` (centres unmarked) [Example 386, 2-((3,5-Dicyano-4-cyclopropyl-6-((2-hydroxyethyl)(methyl)amino)pyridin-2-yl)thio)-2-phenylacetamide], the IC50 in experiment [1] (setting [4]) was 0.316 to 1 µM. Moreover, in experiment [2] (HbF ELISA, day 7 EPCs, 5 days), the EC50 was 1 to 31.6 µM.

`CCc1c(C#N)c(SC(C(N)=O)c2ccccc2)nc(N2CC(COC(=O)[C@@H](N)C(C)C)C2)c1C#N` (some centres unmarked) [Example 277]: the “DNMT1 BioChemical (pIC50 category)” value in experiment [1] (setting [3]) is “D (Category D: ≥6.5)”. For the same compound, the EC50 in experiment [2] (HbF ELISA, day 7 EPCs, 5 days) is 1 to 31.6 µM.

Take `CCc1c(C#N)c(S[C@@H](C(N)=O)c2ccccc2)nc(N2CCC(N(C)C)CC2)c1C#N` [Example 406, (R)-2-((3,5-Dicyano-6-(4-(dimethylamino)piperidin-1-yl)-4-ethylpyridin-2-yl)thio)-2-phenylacetamide]: the “DNMT1 BioChemical (pIC50 category)” value in experiment [1] (setting [3]) is recorded as “D (Category D: ≥6.5)”. Moreover, the EC50 in experiment [2] (HbF ELISA, day 7 EPCs, 5 days) is below 0.316 µM.

Take `CCOc1c(C#N)c(SC(C(N)=O)c2ccccc2)nc(N(C)C)c1C#N` (centres unmarked) [Example 192, 2-((3,5-Dicyano-6-(dimethylamino)-4-ethoxypyridin-2-yl)thio)-2-phenylacetamide]: in experiment [1] (setting [3]), the “DNMT1 BioChemical (pIC50 category)” value is “D (Category D: ≥6.5)”. Moreover, in experiment [2] (HbF ELISA, day 7 EPCs, 5 days), the EC50 is 1 to 31.6 µM.

Regarding `CCc1c(C#N)c(SC(C(N)=O)c2ccccc2)nc(N2CCC(N(C)CC(C)(C)C)CC2)c1C#N` (centres unmarked) [Example 551, 2-((3,5-dicyano-4-ethyl-6-(4-(methyl(neopentyl)amino)piperidin-1-yl)pyridin-2-yl)thio)-2-phenylacetamide], in experiment [1] (setting [3]), the “DNMT1 BioChemical (pIC50 category)” value is listed as “D (Category D: ≥6.5)”. Besides, the EC50 in experiment [2] (HbF ELISA, day 7 EPCs, 5 days) was below 0.316 µM.

For the compound `CCc1c(C#N)c(SC(C(N)=O)c2ccccc2)nc(N2CCN(CCCN(C)C)CC2)c1C#N` (centres unmarked) [Example 120], the IC50 in experiment [1] (setting [4]) and in experiment [1] (setting [5]) was 0.316 to 1 µM in each case. Further, in experiment [2] (HbF ELISA, day 7 EPCs, 5 days), the EC50 was below 0.316 µM.

Take `CCc1c(C#N)c(SC(C(N)=O)c2ccccc2)nc(N2CCN(C(=O)c3ccc(Br)cc3)CC2)c1C#N` (centres unmarked) [Example 310, 2-((6-(4-(4-Bromobenzoyl)piperazin-1-yl)-3,5-dicyano-4-ethylpyridin-2-yl)thio)-2-phenylacetamide]: the IC50 was 1 to 31.6 µM in experiment [1] (setting [4]); ≥ 1 µM and 2 µM in experiment [1] (setting [5]). Further, in experiment [2] (HbF ELISA, day 7 EPCs, 5 days), the EC50 is below 0.316 µM.

For `CCc1c(C#N)c(SC(C(N)=O)c2ccccc2)nc(N(C)CCNC(=O)C(C)(C)N)c1C#N` (centres unmarked) [Example 627, 2-amino-N-(2-((6-((2-amino-2-oxo-1-phenylethyl)thio)-3,5-dicyano-4-ethylpyridin-2-yl)(methyl)amino)ethyl)-2-methylpropanamide], the IC50 in experiment [1] (setting [4]) was below 0.316 µM. Further, the EC50 in experiment [2] (HbF ELISA, day 7 EPCs, 5 days) is below 0.316 µM.

For the compound `CCc1c(C#N)c(SC(C(N)=O)c2ccccc2)nc(N2CCC(O)(CO)CC2)c1C#N` (centres unmarked) [Example 240, 2-((3,5-Dicyano-4-ethyl-6-(4-hydroxy-4-(hydroxymethyl)piperidin-1-yl)pyridin-2-yl)thio)-2-phenylacetamide], the IC50 in experiment [1] (setting [4]) was 0.316 to 1 µM. Besides, in experiment [2] (HbF ELISA, day 7 EPCs, 5 days), the EC50 is 1 to 31.6 µM.

For the compound `CCc1c(C#N)c(N[C@@H](C(N)=O)c2ccccc2)nc(N2CCCN(CCCN3CCCC3)CC2)c1C#N` [Example 163, (R)-2-((3,5-Dicyano-4-ethyl-6-(4-(3-(pyrrolidin-1-yl)propyl)-1,4-diazepan-1-yl)pyridin-2-yl)amino)-2-phenylacetamide], the IC50 in experiment [1] (setting [4]) was 1 to 31.6 µM. Besides, the EC50 in experiment [2] (HbF ELISA, day 7 EPCs, 5 days) was above 31.6 µM.

Regarding `CN1CCCN(c2nc(SC(C(N)=O)c3ccccc3)c(C#N)c(-c3ccco3)c2C#N)CC1` (centres unmarked) [Example 135, 2-((3,5-dicyano-4-(furan-2-yl)-6-(4-methyl-1,4-diazepan-1-yl)pyridin-2-yl)thio)-2-phenylacetamide], the IC50 in experiment [1] (setting [4]) was 0.316 to 1 µM. In addition, in experiment [2] (HbF ELISA, day 7 EPCs, 5 days), the EC50 is 1 to 31.6 µM.

As to `CCc1c(C#N)c(SC(C(N)=O)c2ccccc2)nc(N(C)CCN2CC[C@H](O)C2)c1C#N` (stereo partly drawn) [Example 486, 2-(3,5-dicyano-4-ethyl-6-((2-((S)-3-hydroxypyrrolidin-1-yl)ethyl)(methyl)amino)pyridin-2-ylthio)-2-phenylacetamide], in experiment [1] (setting [3]), the “DNMT1 BioChemical (pIC50 category)” value was “D (Category D: ≥6.5)”. Also, the EC50 in experiment [2] (HbF ELISA, day 7 EPCs, 5 days) is below 0.316 µM.

Values taken from patent US10975056B2 (GlaxoSmithKline Intellectual Property Development Limited, priority 2016, dated 2021).
